14 compounds from patent US20250026753A1, “FUSED TRIAZINONE DERIVATIVES AND METHODS OF USING THE SAME” (Rgenta Therapeutics, Inc., priority 2021, published 2025) can be followed below.

The subject of experiment [1] is K562. Briefly: Cell proliferation assay (CellTiterGlo, 72 hour incubation), K562. It is filed as cell-based. To be noted: Homo sapiens, K562 cells, inhibition of cell proliferation, CellTiterGlo luminescence. The method, then:
(§1) Various cancer cell lines including K562 and COLO201, were treated with the compounds of the present disclosure to assess their effect on inhibiting cell proliferation.
(§2) For compound preparation, test compounds were diluted in duplicates from 10 mM stocks in 11-points 1:3 serial dilutions in DMSO. Then 125 nL test compounds at the serial dilutions were dispensed into 384-well assay plate using Echo dispenser. Staurosporine at 1 mM stock (5 μM final concentration) and DMSO (0.500 final concentration) were used as the positive and negative controls respectively.
(§3) To prepare cell lines, each frozen cell line stock was resuspended and grown in proper growth medium to a density of 40,000 cells/mL. Then 25 μL of cell suspension were dispensed into the assay plate to give seed cell density at 1,000 cells/well, compounds at 50 μM top concentration with 11-point serial dilutions, and 0.5% o DMSO final concentration. Assay plates were then centrifuged at 300 rpm for 1 minute and then incubated at 37° C., 9500 humidity, 500 CO2 for 72 hours. After the 72 hour incubation, the assay plate and its contents were equilibrated at room temperature for approximately 30 minutes. 25 μL of CellTiterGlo reagent was added to the assay plate and mixed for two minutes on an orbital shaker. Then after 10 minutes of incubation of assay plate at from temperature, the luminescence (RLU) signals in each well were recorded using Envision plate reader, then converted to percentage inhibition values using the signals in staurosporine and DMSO treated wells as the references. IC50 values were determined by curve fitting in Levenberg-Marquardt algorithm.

The test system of experiment [2] is COLO201. Briefly: Cell proliferation assay (CellTiterGlo, 72 hour incubation), COLO201. It is filed as cell-based. The following applies: Homo sapiens, COLO 201, COLO201 cells, inhibition of cell proliferation, CellTiterGlo luminescence. As to the method:
as §1, §2, §3
In general terms: In ATP-based viability assays light output follows the ATP content of the culture.

Where a name gives a salt, the structure may show the parent alone.

One may read the IC50 as the concentration that gives 50% inhibition. In the case of `Cc1cn2cc(-c3nc(=O)n4cc(N5CC6CCCC(C5)N6)ccc4n3)cc(F)c2n1` [Compound 118, 7-(3,9-diazabicyclo[3.3.1]nonan-3-yl)-2-(8-fluoro-2-methylimidazo[1,2-a]pyridin-6-yl)-4H-pyrido[1,2-a][1,3,5]triazin-4-one hydrochloride], the IC50 is less than 1 µM in experiment [1] and 1 to 10 µM in experiment [2].
On the same counts, the results for `Cc1cn2cc(-c3nc(=O)n4c(C)c(N5CCNCC5)ccc4n3)cc(F)c2n1` [Compound 122, 2-(8-fluoro-2-methylimidazo[1,2-a]pyridin-6-yl)-6-methyl-7-(piperazin-1-yl)-4H-pyrido[1,2-a][1,3,5]triazin-4-one hydrochloride] are 1 to 10 µM and not below 10 µM.
The like results for `Cc1cn2cc(-c3nc(=O)n4cc(N5CCN[C@@H](C)C5)cc(C)c4n3)cc(F)c2n1` [Compound 117, (S)-2-(8-fluoro-2-methylimidazo[1,2-a]pyridin-6-yl)-9-methyl-7-(3-methylpiperazin-1-yl)-4H-pyrido[1,2-a][1,3,5]triazin-4-one hydrochloride] were, in that order, less than 1 µM and less than 1 µM.
On the same counts, the results for `Cc1cn2cc(-c3nc(=O)n4cc(N5CCNCC5)c(C)cc4n3)cc(F)c2n1` [Compound 115, 2-(8-fluoro-2-methylimidazo[1,2-a]pyridin-6-yl)-8-methyl-7-(piperazin-1-yl)-4H-pyrido[1,2-a][1,3,5]triazin-4-one hydrochloride] are less than 1 µM and 1 to 10 µM.
Consider `Cc1cn2cc(-c3nc(=O)n4cc(N5CCNCC5)cc(C)c4n3)cc(F)c2n1` [Compound 108, 2-(8-fluoro-2-methylimidazo[1,2-a]pyridin-6-yl)-9-methyl-7-(piperazin-1-yl)-4H-pyrido[1,2-a][1,3,5]triazin-4-one hydrochloride], for which the figures for the 50% inhibitory concentration (IC50) in experiment [1] and in experiment [2] were 1 to 10 µM and less than 1 µM, respectively.
The like results for `C[C@H]1CN(c2ccc3nc(-c4cc(F)c5nn(C)cc5c4)nc(=O)n3c2)CCN1` [Compound 133, (S)-2-(7-fluoro-2-methyl-2H-indazol-5-yl)-7-(3-methylpiperazin-1-yl)-4H-pyrido[1,2-a][1,3,5]triazin-4-one hydrochloride] were, in that order, less than 1 µM and 1 to 10 µM.
On the same counts, the results for `Cc1cn2cc(-c3nc(=O)n4cc(N5CCCNCC5)ccc4n3)cc(F)c2n1` [Compound 104, 7-(1,4-diazepan-1-yl)-2-(8-fluoro-2-methylimidazo[1,2-a]pyridin-6-yl)-4H-pyrido[1,2-a][1,3,5]triazin-4-one hydrochloride] are not below 10 µM and not below 10 µM.
The like results for `Cc1cn2cc(-c3nc(=O)n4cc(N5CC6(CNC6)C5)ccc4n3)cc(F)c2n1` [Compound 127, 7-2,6-diazaspiro[3.3]heptan-2-yl-2-8-fluoro-2-methylimidazo[1,2-a]pyridin-6-yl-4H-pyrido[1,2-a][1,3,5]triazin-4-one trifluoroacetic acid] were, in that order, 1 to 10 µM and not below 10 µM.
In the case of `Cc1cn2cc(-c3nc(=O)n4cc(N5CCN[C@H](C)C5)ccc4n3)cc(F)c2n1` [Compound 102, (R)-2-(8-fluoro-2-methylimidazo[1,2-a]pyridin-6-yl)-7-(3-methylpiperazin-1-yl)-4H-pyrido[1,2-a][1,3,5]triazin-4-one formic acid], the half-inhibitory concentration (IC50) is less than 1 µM in experiment [1] and 1 to 10 µM in experiment [2].
The like results for `Cc1cn2cc(-c3nc(=O)n4cc(N5CC6CCC(C5)N6)ccc4n3)cc(F)c2n1` [Compound 105, 7-(3,8-diazabicyclo[3.2.1]octan-3-yl)-2-(8-fluoro-2-methylimidazo[1,2-a]pyridin-6-yl)-4H-pyrido[1,2-a][1,3,5]triazin-4-one hydrochloride] were, in that order, not below 10 µM and not below 10 µM.
As to `Cc1cn2cc(-c3nc(=O)n4cc(C5=CCNCC5)ccc4n3)cc(F)c2n1` [Compound 111, 2-(8-fluoro-2-methylimidazo[1,2-a]pyridin-6-yl)-7-(1,2,3,6-tetrahydropyridin-4-yl)-4H-pyrido[1,2-a][1,3,5]triazin-4-one hydrochloride], the 50% inhibitory concentration (IC50) in experiment [1] is 1 to 10 µM; in experiment [2], less than 1 µM.
On the same counts, the results for `Cc1cn2cc(-c3nc(=O)n4cc(N5CCN[C@@H](C)C5)cc(F)c4n3)cc(C)c2n1` [Compound 121, (S)-2-(2,8-dimethylimidazo[1,2-a]pyridin-6-yl)-9-fluoro-7-(3-methylpiperazin-1-yl)-4H-pyrido[1,2-a][1,3,5]triazin-4-one hydrochloride] are less than 1 µM and less than 1 µM.
As to `Cc1cn2cc(-c3nc(=O)n4cc(N5CCN[C@@H](C)C5)cc(F)c4n3)cc(F)c2n1` [Compound 116, (S)-9-fluoro-2-(8-fluoro-2-methylimidazo[1,2-a]pyridine-6-yl)-7-(3-methylpiperazin-1-yl)-4H-pyrido[1,2-a][1,3,5]triazin-4-one], the IC50 in experiment [1] and in experiment [2] was less than 1 µM throughout.
Consider `Cc1cn2cc(-c3nc(=O)n4cc(N5C[C@@H](C)N[C@@H](C)C5)ccc4n3)cc(F)c2n1` [Compound 107, 7-((3S,5R)-3,5-dimethylpiperazin-1-yl)-2-(8-fluoro-2-methylimidazo[1,2-a]pyridin-6-yl)-4H-pyrido[1,2-a][1,3,5]triazin-4-one hydrochloride], for which the half-inhibitory concentration (IC50) in experiment [1] and in experiment [2] was less than 1 µM throughout.
